Results: patent publication US20090214600A1, “METHODS AND COMPOSITIONS FOR GASTRIC RESISTANT ORAL FORMULATIONS FOR INTESTINAL DELIVERY” (priority 2008, published 2009)
Values joined by “and” are separate entries in the source; they are usually repeats but may differ in a detail not shown here. Equal entries are not always repeated. Where two headings read alike, the source gives them in different places.

What was measured:
[1] = Rabbit plasma Ceftriaxone concentration after oral administration of oral formulations (HPLC); format: in vivo; conditions: oral formulation, 40-80 mg Ceftriaxone, one line per animal (001-005)
Experimental: Oral Ceftriaxone formulations were administered to rabbit test subjects through a formulation delivery tube to permit oral administration, illustrative of the same absorption processes as the human stomach and intestines. Rabbits were dosed at a Ceftriaxone load of 40-80 mg depending upon body weight. Rabbits were dosed with all five oral Ceftriaxone formulations and absorption data collected by HPLC analysis of plasma Ceftriaxone concentrations from the heparinized rabbit plasma specimen. Blood draws were collected at pre-determined intervals of time, spun down to separate serum, and serum was removed and frozen prior to delivery to Clinical Pathology Laboratories in Oklahoma City, Okla.

[2] = Rabbit plasma Ceftriaxone concentration after IV administration (control); format: in vivo
[3] = single dose IV, 1.0 g, cited from earlier work
[4] = single dose IM, 1.0 g, cited from earlier work
[5] = in vivo; cited from earlier work
[6] = cited from earlier work

In the case of CO/N=C(\C(=O)N[C@@H]1C(=O)N2C(C(=O)O)=C(CSc3nc(=O)c(=O)[nH]n3C)CS[C@H]12)c1csc(N)n1 [Ceftriaxone, Ceftriaxone sodium], the “Study Sample Concentration” value ([1]; 0.00 Hours) is reported as “BLQ (BLQ = Below Limit of Quantitation (<1.00 mcg/mL))”, the “Study Sample Concentration” value ([1]; 0.5 Hours) is reported as 40.194 µg/mL and 31.84 µg/mL and 110.88 µg/mL and 143.15 µg/mL and 35.69 µg/mL and the “Study Sample Concentration” value ([1]; 1.0 Hours) is reported as 27.41 µg/mL and 21.71 µg/mL and 75.60 µg/mL and 97.60 µg/mL and 24.33 µg/mL. The “Study Sample Concentration” value ([1]; 2.0 Hours) was 18.27 µg/mL and 14.47 µg/mL and 50.40 µg/mL and 65.07 µg/mL and 16.22 µg/mL, the “Study Sample Concentration” value ([1]; 4.0 Hours) was 7.31 µg/mL and 5.79 µg/mL and 20.16 µg/mL and 26.03 µg/mL and 6.44 µg/mL and the “Study Sample Concentration” value ([1]; 6.0 Hours) was 5.48 µg/mL and 4.34 µg/mL and 15.12 µg/mL and 19.52 µg/mL and 4.87 µg/mL. The “Plasma Concentration of Ceftriaxone Over Time After IV Administration” value ([2]; animal 006, 0.00 Hours) was “BLQ (BLQ = Below Limit of Quantitation (<1.00 mcg/mL))”, the concentration at 0.5 h ([2]; animal 006, 0.5 Hours, read-out: Plasma Concentration of Ceftriaxone Over Time After IV Administration) was 198 µg/mL and the concentration at 1 h ([2]; animal 006, 1.0 Hours, read-out: Plasma Concentration of Ceftriaxone Over Time After IV Administration) was 136 µg/mL. The concentration at 2 h ([2]; animal 006, 2.0 Hours, read-out: Plasma Concentration of Ceftriaxone Over Time After IV Administration) was 90.8 µg/mL, the concentration at 4 h ([2]; animal 006, 4.0 Hours, read-out: Plasma Concentration of Ceftriaxone Over Time After IV Administration) was 36.4 µg/mL and the concentration at 6 h ([2]; animal 006, 6.0 Hours, read-out: Plasma Concentration of Ceftriaxone Over Time After IV Administration) was 27.3 µg/mL. The “Plasma Concentrations” value ([3]; 0.5 hr) was 151 µg/mL, the “Plasma Concentrations” value ([3]; 1 hr) was 111 µg/mL and the “Plasma Concentrations” value ([3]; 2 hr) was 88 µg/mL. The “Plasma Concentrations” value ([3]; 4 hr) was 67 µg/mL, the “Plasma Concentrations” value ([3]; 6 hr) was 53 µg/mL and the “Plasma Concentrations” value ([3]; 8 hr) was 43 µg/mL. The “Plasma Concentrations” value ([3]; 12 hr) was 28 µg/mL, the “Plasma Concentrations” value ([3]; 16 hr) was 18 µg/mL and the “Plasma Concentrations” value ([3]; 24 hr) was 9 µg/mL. For the same compound, the “Plasma Concentrations” value ([4]; 0.5 hr) was 40 µg/mL, the “Plasma Concentrations” value ([4]; 1 hr) was 68 µg/mL and the “Plasma Concentrations” value ([4]; 2 hr) was 76 µg/mL. The “Plasma Concentrations” value ([4]; 4 hr) was 68 µg/mL, the “Plasma Concentrations” value ([4]; 6 hr) was 56 µg/mL and the “Plasma Concentrations” value ([4]; 8 hr) was 44 µg/mL. The “Plasma Concentrations” value ([4]; 12 hr) was 29 µg/mL, the “dose excreted as unchanged drug in the urine” value [5] was 33-67% and the solubility in ethanol ([6]; ethanol) was “slightly soluble”. For the same compound, the solubility in methanol ([6]; methanol) was “sparingly” and the solubility in water ([6]; water) was “readily soluble”.
